Reference: publication PMC6273231 (Molecules, 2016)

Target: influenza virus neuraminidase (NA) (Influenza A virus, UniProt Q6DPL2)
Conditions: enzyme inhibition assay in vitro

Chain of influenza virus neuraminidase (NA) (Q6DPL2 whole entry, looked up): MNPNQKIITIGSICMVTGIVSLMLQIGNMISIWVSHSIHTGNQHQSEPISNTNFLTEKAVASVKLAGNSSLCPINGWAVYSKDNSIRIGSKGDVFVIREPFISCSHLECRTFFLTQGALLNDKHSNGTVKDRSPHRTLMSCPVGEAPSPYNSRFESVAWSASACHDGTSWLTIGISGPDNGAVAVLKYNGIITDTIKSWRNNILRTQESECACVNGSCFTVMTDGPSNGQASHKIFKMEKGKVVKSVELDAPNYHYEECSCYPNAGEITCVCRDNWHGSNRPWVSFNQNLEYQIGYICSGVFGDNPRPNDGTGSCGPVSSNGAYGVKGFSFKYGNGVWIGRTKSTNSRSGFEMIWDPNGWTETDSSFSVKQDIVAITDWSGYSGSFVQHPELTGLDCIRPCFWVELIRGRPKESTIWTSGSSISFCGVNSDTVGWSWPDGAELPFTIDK

SMILES | NA inhibitory activity compared with the positive control Oseltamivir acid (in words)
C[C@@]12C[C@@]3(O)O[C@@H](O1)[C@]1(COC(=O)c4ccccc4)[C@H]3C[C@@]12O[C@@H]1O[C@H](CO)[C@@H](O)[C@H](O)[C@H]1O [Paeoniflorin] | stronger activity against NA than Oseltamivir acid
O=C(OC[C@H]1O[C@@H](OC(=O)c2cc(O)c(O)c(O)c2)[C@H](OC(=O)c2cc(O)c(O)c(O)c2)[C@@H](OC(=O)c2cc(O)c(O)c(O)c2)[C@@H]1OC(=O)c1cc(O)c(O)c(O)c1)c1cc(O)c(O)c(O)c1 [pentagalloylglucose, Pentagalloyl glucose] | stronger activity against NA than Oseltamivir acid
C[C@]12C[C@@H](O)[C@@H]3C[C@@]1(O[C@@H]1O[C@H](CO)[C@@H](O)[C@H](O)[C@H]1O)[C@]3(COC(=O)c1ccccc1)C(=O)O2 [Albiflorin] | stronger activity against NA than Oseltamivir acid
C[C@@]12C[C@@]3(O)O[C@@H](O1)[C@]1(COC(=O)c4ccccc4)[C@H]3C[C@@]12O[C@@H]1O[C@H](COC(=O)c2ccccc2)[C@@H](O)[C@H](O)[C@H]1O [Benzoylpaeoniflorin] | stronger activity against NA than Oseltamivir acid
